The values that follow come from the NIST ThermoML archive (doi:10.1021/acs.jced.7b00740).

Series [1] can be described thus: refractive index (Na D-line) (dimensionless). Particulars: 298.15 K; 101.33 kPa; Liquid; Standard Abbe refractometry.
For series [2] the following is noted: Liquid; for mass density: 293.15 K, 101.33 kPa, Pycnometric method; for vapor or sublimation pressure: Ebulliometric method (Recirculating still).

± gives the expanded uncertainty stated by the source.

For orientation: refractive index means the speed of light in vacuum divided by its phase velocity in the sample. In general, mass density refers to the mass of a sample divided by its volume. A word on the vapor or sublimation pressure: it is the equilibrium pressure above the liquid or solid. As to `CCCOCOCC` [1-(ethoxymethoxy)propane], in series [1], the refractive index was 1.3818 ± 0.0005. Besides, in series [2], the mass density stood at 831.1 ± 0.7 kg/m3. In addition, in series [2] (386.53 K), the “vapor or sublimation pressure” value worked out at 101.33 ± 1 kPa.
`CCCCO` [butan-1-ol]: in series [1], the refractive index was found to be 1.3971 ± 0.0005. For the same molecule, the mass density in series [2] is recorded as 809.5 ± 0.7 kg/m3. In addition, the “vapor or sublimation pressure” value in series [2] (390.92 K) is listed as 101.33 ± 1 kPa.
Consider `CCCO` [propan-1-ol], for which the refractive index in series [1] stood at 1.3835 ± 0.0005. Further, the mass density in series [2] is given as 803.6 ± 0.7 kg/m3. The “vapor or sublimation pressure” value in series [2] (370.42 K) was 101.33 ± 1 kPa.
In the case of `COCOCOC` [2,4,6-trioxaheptane], in series [1], the refractive index worked out at 1.379 ± 0.0005. Also, the mass density in series [2] is 958 ± 0.8 kg/m3. Besides, the “vapor or sublimation pressure” value in series [2] (378 K) is given as 101.33 ± 1 kPa.
For the molecule `CCO` [ethanol], the refractive index in series [1] is 1.3595 ± 0.0005. In addition, the mass density in series [2] was 789.2 ± 0.7 kg/m3. The “vapor or sublimation pressure” value in series [2] (351.51 K) stood at 101.33 ± 1 kPa.
As to `CCCOCOC` [1-(methoxymethoxy)propane], the refractive index in series [1] is 1.3757 ± 0.0005. The mass density in series [2] turned out to be 841.2 ± 0.7 kg/m3. The “vapor or sublimation pressure” value in series [2] (366.13 K) came to 101.33 ± 1 kPa.
